Measured values: PMC10860144, “Exploring the Dispersion and Electrostatic Components in Arene–Arene Interactions between Ligands and G4 DNA to Develop G4-Ligands” (Journal of Medicinal Chemistry, 2024)

What was measured:
c-MYC Pu22 G4 DNA [1] = test: FRET melting assay, c-MYC Pu22 G4 DNA; assay type: binding, human; conditions: c-MYC Pu22 G4 DNA; 5-40 equiv
Description: The synthesized compounds (2–11) were first analyzed using a Förster resonance energy transfer (FRET) assay (Figure 2A). This assay measures the compounds’ ability to affect the thermal stability of fluorescently labeled DNA, in this case, the c-MYC Pu22 G4 DNA (Table S1). […] The addition of one methyl group to the quinazoline core (3) provides almost twice as strong thermal stability compared to 2. The addition of a second methyl group (4) further increased stabilization, albeit modestly (by 0.5 °C). This slight increase between 3 and 4 could stem from the suboptimal positioning of the added methyl substituent in relation to the guanines on the G4 surface, compared to other positions on the quinazoline ring. […] Furthermore, the methyl-substituted (4) and the methoxy-substituted (6) display a similar G4 stabilization despite the strong electrostatic character of the methoxy substituent compared to the neutral methyl group, which further supports that these interactions are dispersion-driven. This conclusion is further supported by the fact that the replacement of the methoxy group in 6 with chlorine in 7 results in a very similar stabilization as 3, 4, and 6.
Synthetic labeled oligonucleotides for the FRET study were purchased from Eurofins Genomics. Stock solutions were prepared in MQ-water at 100 μM concentration. The sequences used are listed in Supporting Information Table S1. All the oligonucleotides except Pu22 were prefolded in 10 mM lithium cacodylate buffer (pH 7.4), with 10 mM KCl and 90 mM LiCl by heating for 10 min at 95 °C and then cooling in fridge for at least 1 h. Pu22 was folded in 10 mM lithium cacodylate buffer (pH 7.4), with 2 mM KCl and 98 mM LiCl.
The FRET occurs between two dyes (5′-FAM as donor and 3′-TAMRA as acceptor) linked at both extremities of a DNA oligonucleotide. When the oligonucleotides are folded into G4 structures, the donor and acceptor are in proximity, which results in an energy transfer from the donor to the acceptor. This process can be detected by a reduction in the fluorescence emission of the donor. Fluorescence emission of the donor is recovered when the temperature increment triggers the thermal denaturation of the G4 structure. The experiments were performed in a Bio-Rad CFX96 real-time PCR device at temperatures from 10 to 95 °C at 1.5 °C/m heating rate using a 492 nm excitation wavelength and a 516 nm detection wavelength in 96-well plates. […] The stabilization (ΔTm) is calculated from comparison of Tm of the fluorescently labeled oligonucleotide in the presence or absence of the ligand. […]
The fluorescence resonance energy transfer (FRET) occurs between two dyes (5'-FAM as donor and 3'- TAMRA as acceptor) linked at both extremities of a DNA oligonucleotide. […]

c-MYC Pu22 G4 DNA [2] = test: Microscale thermophoresis (MST), c-MYC Pu22 G4 DNA; assay type: binding, human; conditions: Cy5-labeled c-MYC Pu22 G4 DNA 25 nM; pH 7.4, 100 mM KCl; read-out: apparent Kd (MST)
Procedure: To evaluate the apparent binding affinities (Kd) for the compound series, we next used microscale thermophoresis (MST) with fluorescently labeled c-MYC Pu22 G4 DNA (Table S1). Overall, the measured MST binding results for compounds 2–11 corresponded well with the results from the FRET assay (Figures 2B and S3).
5′-Cy5 labeled G4 DNAs for this study were purchased from Eurofins Genomics. Stock solutions were prepared in water at 100 μM concentration. The sequences used are listed in Supporting Information Table S1. The G4 DNA sequences were folded in KCl buffer (10 mM phosphate, 100 mM KCl, pH 7.4) by heating at 95 °C for 5 min and then cooling to room temperature. All the experiments were performed in 10 mM phosphate pH 7.4, 100 mM KCl, and 0.05% Tween20. The labeled DNA concentration is held constant at 25 nM, and ligand concentration is varied depending on ligands Kd (16 1:3 dilutions). The samples were loaded into standard MST graded glass capillaries and initial fluorescence intensity of the capillary was measured using Monolith NT.115 (Nano Temper, Germany) with 20% LED power. The change in fluorescence with ligand’s concentrations were plotted in Excel and fitted through nonlinear equation to obtain the binding constants. […]
Microscale Thermophoresis (MST)
5'- Cy5 labelled G4 DNAs for this study were purchased from Eurofins Genomics. Stock solutions were prepared in water at […] concentration. The sequences used are listed in supplementary Table S1. The G4 DNA sequences were folded in KCl buffer (10 mM phosphate, 100 mM KCl, pH 7.4) by heating at 95 °C for 5 min and then cooling to room temperature. All the experiments were performed in 10 mM phosphate pH 7.4, 100 mM KCl, 0.05% Tween20. The labelled DNA concentration is held constant at 25 nM and ligand concentration is varied depending on ligands Kd (sixteen 1:3 dilutions). The samples were loaded into standard MST graded glass capillaries and initial fluorescence intensity of the capillary were measured using Monolith NT.115 (Nano Temper, Germany) with 20% LED power. The change in fluorescence with ligand's concentrations were plotted in Excel and fitted through non-linear equation to obtain the binding constants.
(1 picture or pasted object on this page, not shown here)

logD at pH 7.4 = assay type: physicochemical
Procedure: (§1) Physicochemical properties
(§2) The Physicochemical profiling (LogD, Solubility, Caco-2 cell permeability) was performed as previously
(§3) described.8 Cell viability was performed as described below.
(§4) Table S2. Pharmacokinetic Properties
(§5) Compound Structure logD, Solubility, Rat hepsa Human mics b

Solubility at pH 7.4 = assay type: physicochemical
Procedure: as §1, §2, §3, §4, §5

[3] = Intrinsic clearance in rat hepatocytes; assay type: in vitro ADME
Procedure: (§6) All compounds (2–11, 25–29) were screened for their logD and solubility at pH 7.4 and for their intrinsic clearance in rat hepatocytes and human microsomes (Table S2). […] Replacing the basic amine side chain to a methyl substituent in the quinazolines (25–29) still retained good solubility (134 to over 1000 μM) but increased clearance in both rat hepatocytes and human microsomes. The logD was low for compounds with a basic amine side chain (2–11) and increased slightly when the amine was replaced with a methyl (25–29). As expected, additional substituents also affected the logD with the chloro-substituents increasing logD the most.
(§7) a Intrinsic clearance in rat hepatocytes ((μL/min)/10^6 cells).b Intrinsic clearance in human microsomes (μL/min/mg). […]

[4] = Intrinsic clearance in human microsomes; assay type: in vitro ADME; conditions: read-out: Human mics: intrinsic clearance in human microsomes
Procedure: as §6, §7

Pu24T c-MYC G4 structure = test: Kd for binding to the Pu24T c-MYC G4 structure (supplementary CSV); parameters: species or system human
Procedure: 5′-Cy5 labeled G4 DNAs for this study were purchased from Eurofins Genomics. Stock solutions were prepared in water at 100 μM concentration. The sequences used are listed in Supporting Information Table S1. The G4 DNA sequences were folded in KCl buffer (10 mM phosphate, 100 mM KCl, pH 7.4) by heating at 95 °C for 5 min and then cooling to room temperature. All the experiments were performed in 10 mM phosphate pH 7.4, 100 mM KCl, and 0.05% Tween20. The labeled DNA concentration is held constant at 25 nM, and ligand concentration is varied depending on ligands Kd (16 1:3 dilutions). The samples were loaded into standard MST graded glass capillaries and initial fluorescence intensity of the capillary was measured using Monolith NT.115 (Nano Temper, Germany) with 20% LED power. The change in fluorescence with ligand’s concentrations were plotted in Excel and fitted through nonlinear equation to obtain the binding constants.
The Supporting Information is available free of charge at https://pubs.acs.org/doi/10.1021/acs.jmedchem.3c02127. • Experimental procedures and data; assay data, computational results, and all cell data; NMR (^1H and ^13C) spectra for all compounds (with the exception of a few intermediates); and HPLC UV traces for the final compounds (PDF) • Molecular formula strings and Kd values for binding to the Pu24T c-MYC G4 structure (CSV)

Kd (c-MYC Pu22 G4 DNA [2]): > 10 µM
logD (logD at pH 7.4): 1.4
solubility (Solubility at pH 7.4): > 1000 µM
Rat heps: intrinsic clearance in rat hepatocytes [3]: 38 (μL/min)/106 cells
microsomal CLint [4]: 8 µL/min/mg
Kd (Pu24T c-MYC G4 structure): > 10 µM
SMILES: Cc1cc(NCCCN(C)C)nc(Nc2cnc3ccccc3n2)n1 [Compound 8, N4-(3-(Dimethylamino)propyl)-6-methyl-N2-(quinoxalin-2-yl)pyrimidine-2,4-diamine]
ability to stabilize the G4 structure (in words) (c-MYC Pu22 G4 DNA [1]): almost no ability to stabilize the G4 structure
